Entries after “also recorded” stand apart in the source; their conditions may differ. Like-named read-outs stand apart in the source and are kept apart here.
Experiments:
rat Kv1.2 = biological target: T1, rat Kv1.2 (Rattus norvegicus, UniProt P63142); experiment: Patch-clamp of heterologous rat Kv1.2 expressed in B82 cells; assay type: cell-based
T1 construct: expressed in transfected cells; host or cells: B82 cells
Description: (§1) Patch pipettes, pulled from glass capillaries (inner diameter 1.5 mm, Kimble products) with a horizontal puller (Sutter instruments, Modell P-97), were fire-polished, and had resistances between 2 and 4 MOhm. Patch-clamp experiments were performed in the tight-seal whole-cell configuration at room temperature (22-24° C.). High-resolution current recordings were acquired by a computer-based patch-clamp amplifier system (EPC-9, HEKA). Immediately following establishment of the whole-cell configuration, every two seconds voltage ramps of 50 ms duration spanning the voltage range of −100 to +100 mV for Jurkat T-cells and −150 to +150 mV for HEK293 were delivered from a holding potential (Vh) of −70 mV for Jurkats and 0 mV for HEK293 cells over a period of 300-600 s. […] Capacitive currents and series resistance were determined and corrected before each voltage ramp using the automatic capacitance compensation of the EPC-9. […] Kv1.3 currents in Jurkat T-cells were measured at +80 mV. Heterologously expressed Kv1.1, Kv1.2, Kv1.3, Kv1.5 and Kv3.1 were assessed at +80 mV except in Figure S7, where currents were additionally measured at the more physiological voltage of 0 mV. CRAC currents in HEK293 cells were assessed at −80 mV. […]

[1] = test system: mouse mixed lymphocyte reaction; experiment: Murine mixed lymphocyte reaction; assay type: cell-based; settings: n=3
[2] = test system: calcium oscillation in Jurkat T-cells; experiment: Calcium oscillation in Jurkat T-cells (10 nM TG); assay type: cell-based, human; settings: for cells with elongated calcium oscillation period: 10 nM TG, Jurkat T-cells
Description: JurkaT-cells were attached to L-lysine-coated glass dishes (MatTek). Cells were loaded with fura-2-AM (Invitrogen_F-1201) for 45 min before they were washed sequentially with growth medium and Ca^2+-free HBSS. Fluorescence excitation wavelengths were set at 350 and 380 nm, respectively, on a Zeiss Axiovert 200M microscope while emission wavelength was set at 510 nm. Changes in intracellular calcium concentrations were determined by fluorescence intensity ratio ([…]/F380).

mouse Kv1.3 = biological target: T2, mouse Kv1.3 (Mus musculus, UniProt P16390); experiment: Patch-clamp of heterologous mouse Kv1.3 expressed in L929 cells; assay type: cell-based
T2 construct: expressed in transfected cells; host or cells: L929 cells
Description: as §1

[3] = test system: endogenous NFATc2 dephosphorylation; experiment: Dephosphorylation of endogenous NFATc2 in Jurkat T-cells (Western blot); assay type: cell-based, human; settings: ionomycin treatment
Description: Jurkat T-cells were pretreated with indicated compounds for 1 h before 3 μM (final concentration) ionomycin was added. Cells were harvested after 30 min and lysed in a lysis buffer [40 mM Tris (pH 7.8), 1% NP-40, 10 mM EDTA, 60 mM […] and common protease inhibitors] by sonication. NFATc2 was resolved by 8% SDS-PAGE followed by Western blot analysis using anti-NFAT antibodies (Santa-cruz Sc-7296, 1:100 dilution).

Kv1.3 [4] = biological target: T3, Kv1.3 (Homo sapiens, UniProt P22001); experiment: Immunofluorescence colocalization in Jurkat T-cells; assay type: cell-based; settings: plasma membrane of Jurkat T-cells
T3 construct: endogenous in cells; host or cells: Jurkat T-cells
Description: Jurkat T-cells treated with clofazimine were centrifuged onto L-lysine-coated coverslips. Cells were fixed with 4% p-formaldehyde for 15 min. The cells were washed in PBS, permeabilized by −20° C. methanol and blocked with 10% donkey serum in PBS. The fixed cells were then incubated with Kv1.3 primary antibody (sc-17239 at 1:100 dilution) for 1 h. Cells were washed in PBS (3×5 min) and incubated with donkey anti-goat Cy5 antibodies for an additional 1 h. Cells were then washed three times in PBS, mounted, and photographed. Mounting was performed using Vectashield mounting medium (Vector Laboratories) and images were captured using either a Zeiss LSM510 confocal microscope. Merged images were compiled using LSM5 Image Examiner or Adobe Photoshop CS.

TRPM4 channel = TRPM4 channel (Homo sapiens, UniProt Q8TD43); experiment: Activity of TRPM4 channel (data not shown); assay type: cell-based; settings: up to 10 μM
mouse Kv3.1 = biological target: T4, mouse Kv3.1 (Mus musculus, UniProt P15388); experiment: Patch-clamp of heterologous mouse Kv3.1 expressed in L929 cells; assay type: cell-based
T4 construct: expressed in transfected cells; host or cells: L929 cells
Description: as §1

Kv1.3 [5] = biological target: T3, Kv1.3; experiment: Patch-clamp of Kv1.3 currents in Jurkat T-cells; assay type: cell-based
Description: as §1

[6] = test system: IL-2 proximal promoter driven-luciferase; experiment: IL-2 luciferase reporter assay in Jurkat T-cells (PMA/ionomycin); assay type: cell-based, human; settings: for IC50: n=6
[7] = test system: CRAC channel (CRACM1, CRACM2, CRACM3 with STIM1); experiment: Patch-clamp of reconstituted CRAC current in HEK293 cells; assay type: cell-based; settings: CRACM1, CRACM2 or CRACM3 with STIM1 in HEK293 cells
Description: as §1

AP-1 luciferase reporter = AP-1 luciferase reporter assay in Jurkat T-cells; assay type: cell-based, human; settings: PMA/ionomycin, high concentrations (>1 μM for clofazimine)

T3 sequence (P22001 whole entry): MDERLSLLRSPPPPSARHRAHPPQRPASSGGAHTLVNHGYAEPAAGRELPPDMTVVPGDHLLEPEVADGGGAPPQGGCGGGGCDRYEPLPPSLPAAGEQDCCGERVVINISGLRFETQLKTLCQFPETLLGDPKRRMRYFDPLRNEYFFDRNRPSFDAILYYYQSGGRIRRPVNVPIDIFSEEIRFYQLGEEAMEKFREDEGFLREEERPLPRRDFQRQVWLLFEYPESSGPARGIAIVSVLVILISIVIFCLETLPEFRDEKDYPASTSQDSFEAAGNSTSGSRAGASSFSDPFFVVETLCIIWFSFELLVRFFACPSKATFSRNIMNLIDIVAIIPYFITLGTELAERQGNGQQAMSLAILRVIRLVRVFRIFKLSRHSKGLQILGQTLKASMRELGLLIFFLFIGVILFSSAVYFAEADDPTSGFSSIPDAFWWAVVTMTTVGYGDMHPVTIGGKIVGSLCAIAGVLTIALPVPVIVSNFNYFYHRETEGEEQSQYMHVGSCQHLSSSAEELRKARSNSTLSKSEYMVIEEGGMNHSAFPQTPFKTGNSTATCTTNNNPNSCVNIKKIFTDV
T2 sequence (P16390 whole entry): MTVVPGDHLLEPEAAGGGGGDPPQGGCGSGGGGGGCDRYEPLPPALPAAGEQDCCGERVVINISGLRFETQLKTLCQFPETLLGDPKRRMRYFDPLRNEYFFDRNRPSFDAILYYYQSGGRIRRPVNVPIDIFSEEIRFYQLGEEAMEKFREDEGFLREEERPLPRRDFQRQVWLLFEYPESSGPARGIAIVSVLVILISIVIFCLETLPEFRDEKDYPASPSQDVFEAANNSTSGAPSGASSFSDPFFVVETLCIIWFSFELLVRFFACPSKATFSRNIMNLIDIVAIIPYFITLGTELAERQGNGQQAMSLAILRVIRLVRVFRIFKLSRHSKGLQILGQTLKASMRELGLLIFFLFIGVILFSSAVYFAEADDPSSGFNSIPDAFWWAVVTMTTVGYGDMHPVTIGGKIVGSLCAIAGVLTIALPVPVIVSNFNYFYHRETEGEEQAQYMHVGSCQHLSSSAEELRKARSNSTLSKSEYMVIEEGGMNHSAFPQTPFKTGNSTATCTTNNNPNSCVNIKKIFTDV
T4 sequence (P15388 whole entry): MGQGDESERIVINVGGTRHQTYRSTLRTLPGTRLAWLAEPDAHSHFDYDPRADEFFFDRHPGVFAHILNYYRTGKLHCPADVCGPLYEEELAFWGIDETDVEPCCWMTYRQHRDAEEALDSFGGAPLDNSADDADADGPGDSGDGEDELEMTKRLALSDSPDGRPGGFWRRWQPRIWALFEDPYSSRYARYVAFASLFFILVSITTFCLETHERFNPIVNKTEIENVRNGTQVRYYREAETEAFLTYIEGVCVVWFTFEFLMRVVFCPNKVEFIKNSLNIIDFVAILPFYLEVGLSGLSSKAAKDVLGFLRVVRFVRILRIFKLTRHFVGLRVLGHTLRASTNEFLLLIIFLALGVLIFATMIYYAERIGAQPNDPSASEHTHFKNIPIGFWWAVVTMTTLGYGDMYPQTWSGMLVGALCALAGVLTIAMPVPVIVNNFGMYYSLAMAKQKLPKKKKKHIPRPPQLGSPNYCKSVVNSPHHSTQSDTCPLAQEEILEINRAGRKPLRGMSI
T1 sequence (P63142 whole entry): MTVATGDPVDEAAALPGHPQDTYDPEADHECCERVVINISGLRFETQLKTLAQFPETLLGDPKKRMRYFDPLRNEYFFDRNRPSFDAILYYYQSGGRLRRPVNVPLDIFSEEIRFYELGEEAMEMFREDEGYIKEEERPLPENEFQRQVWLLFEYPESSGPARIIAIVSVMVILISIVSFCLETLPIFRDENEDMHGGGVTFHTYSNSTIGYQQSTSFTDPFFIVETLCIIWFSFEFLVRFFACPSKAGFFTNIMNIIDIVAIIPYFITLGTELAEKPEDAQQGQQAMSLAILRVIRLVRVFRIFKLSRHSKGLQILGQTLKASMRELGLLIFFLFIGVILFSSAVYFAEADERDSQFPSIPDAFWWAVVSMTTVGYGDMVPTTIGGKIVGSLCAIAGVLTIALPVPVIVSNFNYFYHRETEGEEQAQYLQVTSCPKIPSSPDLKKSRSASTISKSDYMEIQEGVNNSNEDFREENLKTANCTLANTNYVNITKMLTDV
Chain of TRPM4 channel (Q8TD43 whole entry): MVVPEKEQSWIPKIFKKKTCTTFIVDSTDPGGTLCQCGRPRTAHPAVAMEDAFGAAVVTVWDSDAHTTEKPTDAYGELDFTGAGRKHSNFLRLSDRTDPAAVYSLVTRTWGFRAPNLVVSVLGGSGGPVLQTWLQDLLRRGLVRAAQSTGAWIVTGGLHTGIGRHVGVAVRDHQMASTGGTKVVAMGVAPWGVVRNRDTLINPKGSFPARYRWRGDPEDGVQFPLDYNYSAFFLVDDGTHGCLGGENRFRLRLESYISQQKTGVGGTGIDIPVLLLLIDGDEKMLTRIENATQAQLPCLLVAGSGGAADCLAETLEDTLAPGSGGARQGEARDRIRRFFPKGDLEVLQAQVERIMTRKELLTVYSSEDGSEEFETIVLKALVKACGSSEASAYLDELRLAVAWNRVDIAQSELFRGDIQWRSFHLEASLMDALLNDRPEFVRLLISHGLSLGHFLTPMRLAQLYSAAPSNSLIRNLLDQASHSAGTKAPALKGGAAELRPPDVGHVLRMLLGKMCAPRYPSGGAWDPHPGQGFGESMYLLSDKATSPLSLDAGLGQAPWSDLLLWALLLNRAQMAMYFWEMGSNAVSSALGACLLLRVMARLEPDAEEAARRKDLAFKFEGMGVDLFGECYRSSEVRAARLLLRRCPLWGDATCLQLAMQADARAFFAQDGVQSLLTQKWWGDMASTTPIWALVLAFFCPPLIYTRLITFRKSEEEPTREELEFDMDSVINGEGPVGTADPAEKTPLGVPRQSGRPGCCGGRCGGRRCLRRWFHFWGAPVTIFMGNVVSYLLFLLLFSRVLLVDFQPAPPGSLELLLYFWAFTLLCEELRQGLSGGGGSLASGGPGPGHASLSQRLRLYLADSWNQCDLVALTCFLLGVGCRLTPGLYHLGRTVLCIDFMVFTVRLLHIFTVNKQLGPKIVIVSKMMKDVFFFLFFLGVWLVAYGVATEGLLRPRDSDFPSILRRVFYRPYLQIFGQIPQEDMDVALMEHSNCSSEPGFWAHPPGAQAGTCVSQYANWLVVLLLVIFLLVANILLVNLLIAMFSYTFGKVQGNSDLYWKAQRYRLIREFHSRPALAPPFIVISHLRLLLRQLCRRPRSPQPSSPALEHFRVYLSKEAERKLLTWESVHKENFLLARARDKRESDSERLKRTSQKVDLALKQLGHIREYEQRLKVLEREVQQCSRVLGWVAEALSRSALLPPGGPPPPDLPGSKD

## CC(C)/N=c1\cc2n(-c3ccc(Cl)cc3)c3ccccc3nc-2cc1Nc1ccc(Cl)cc1 [clofazimine, Clofazimine]
Rat Kv1.2; 10 μM
  block of current, rat Kv1.2: less than 50%
Rat Kv1.2; inferred from block at 10 μM
  IC50: > 10000 nM
[1]
  effect on murine mixed lymphocyte reaction: failed to observe a dose-dependent inhibition; also recorded: Biphasic effects
[2]
  cells with elongated calcium oscillation period: Over 80%
[2]; listed as Clofazimine
  cells with elongated calcium oscillation period: more than 80%
[2]; low concentration of thapsigargin
  effect on calcium oscillation pattern: decreased the amplitude and increased the period
Mouse Kv1.3
  Hill coefficient, mouse Kv1.3: 0.5
Mouse Kv1.3; +80 mV
  IC50: 470 nM
[3]
  effect on dephosphorylation of endogenous NFATc2: inhibited ionomycin-induced dephosphorylation of NFATc2 in a dose-dependent manner
[3]; listed as Clofazimine
  effect on dephosphorylation of endogenous NFATc2: inhibits dephosphorylation
Kv1.3 [4]
  subcellular localization relative to Kv1.3: same subcellular localization pattern
Kv1.3 [4]; listed as Clofazimine
  subcellular localization relative to Kv1.3: colocalizes with Kv1.3
TRPM4 channel
  effect on TRPM4 channel activity: remained unaffected
Mouse Kv3.1; 10 μM
  block of current, mouse Kv3.1: less than 50%
Mouse Kv3.1; inferred from block at 10 μM
  IC50: > 10000 nM
Kv1.3 [5]
  Hill coefficient, Kv1.3 current: 0.75
Kv1.3 [5]; current at +80 mV, inhibition at 120 s, read-out: IC50, Kv1.3 potassium current
  IC50: 300 nM
[6]; Homo sapiens, Jurkat, Kv1.3 overexpression low to high, 1st curve, read-out: IC50, IL-2 luciferase reporter, Kv1.3 overexpression
  IC50: 41.6 ± 8.4 nM
[6]; Homo sapiens, Jurkat, Kv1.3 overexpression low to high, 2nd curve, read-out: IC50, IL-2 luciferase reporter, Kv1.3 overexpression
  IC50: 41 ± 14.5 nM
[6]; Homo sapiens, Jurkat, Kv1.3 overexpression low to high, 3rd curve, read-out: IC50, IL-2 luciferase reporter, Kv1.3 overexpression
  IC50: 386 ± 214 nM
[6]; Homo sapiens, Jurkat, Kv1.3 overexpression low to high, 4th curve, read-out: IC50, IL-2 luciferase reporter, Kv1.3 overexpression
  IC50: 1370 ± 520 nM
[6]; Homo sapiens, Jurkat, Kv1.3 overexpression low to high, 5th (highest) curve, read-out: IC50, IL-2 luciferase reporter, Kv1.3 overexpression
  IC50: 1460 ± 630 nM
[6]; Homo sapiens, Jurkat, PMA/ionomycin-stimulated Jurkat T-cells, FIG. 1A, read-out: IC50, IL-2 luciferase reporter
  IC50: 21.8 ± 4.4 nM
[6]; Homo sapiens, Jurkat, control EGFP-siRNA lentiviral transduced Jurkat T-cells, read-out: IC50, IL-2 luciferase reporter
  IC50: 49.9 ± 13 nM
[6]; Homo sapiens, Jurkat, shKv1.3-4 (Kv1.3 knockdown) transduced Jurkat T-cells, read-out: IC50, IL-2 luciferase reporter
  IC50: 10.5 ± 2.4 nM
[6]; Homo sapiens, Jurkat, PMA/ionomycin, FIG. 1C, read-out: IC50, IL-2 luciferase reporter
  IC50: 56 ± 14.8 nM
[6]; PMA/ionomycin-stimulated Jurkat T-cells, FIG. 1A, read-out: IC50, IL-2 luciferase reporter
  IC50: 22 nM
[6]; highest Kv1.3 expression plasmid (2 μg)
  increase in IC50 value upon Kv1.3 overexpression: 35 fold
[6]; shKv1.3-4 vs shRNA against EGFP
  decrease in IC50 values upon Kv1.3 knockdown: ~5 fold
[7]
  effect on reconstituted CRAC current: no effects
[7]; listed as Clofazimine
  effect on reconstituted CRAC current: without affecting
AP-1 luciferase reporter
  effect on AP-1 luciferase reporter: enhanced, rather than inhibited
AP-1 luciferase reporter; listed as Clofazimine
  effect on AP-1 luciferase reporter: significantly enhances

— patent US8669257B2, “Phenazine derivatives and uses thereof as potassium channel modulators” (The Johns Hopkins University, priority 2007, dated 2014)
